Results as given in PubChem BioAssay (NCI).
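Tested at 5 concentrations; 48 h exposure; 96-well plates; endpoints linearly interpolated, else capped at highest concentration. The concentration for 50% growth inhibition is given as GI50. TGI: concentration producing complete growth inhibition.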

Tests used:
Test in all cases: NCI-60 cell line screen, 48 h
[1] = system: A498 renal
[2] = system: COLO 205 colon
[3] = system: K-562 leukemia
[4] = system: MDA-MB-435
[5] = system: NCI-H460 lung
[6] = system: NCI-H522 lung
[7] = system: NCI/ADR-RES ovarian
[8] = system: SF-539 CNS
[9] = system: SW-620 colon
[10] = system: TK-10 renal

Row | Compound | GI50 [1] [µM] | TGI [1] [µM] | GI50 [2] [µM] | TGI [2] [µM] | GI50 [3] [µM] | TGI [3] [µM] | GI50 [4] [µM] | TGI [4] [µM] | GI50 [5] [µM] | TGI [5] [µM] | GI50 [6] [µM] | TGI [6] [µM] | GI50 [7] [µM] | TGI [7] [µM] | GI50 [8] [µM] | TGI [8] [µM] | GI50 [9] [µM] | TGI [9] [µM] | GI50 [10] [µM] | TGI [10] [µM]
1 | Clc1cc(Cl)cc(Nc2ccc3c(OCCCN4CCOCC4)cccc3n2)c1 | 2.39 | 12.1 | 1.77 | 3.56 | 2.21 | 5.71 | 1.8 | 3.71 | 2.42 | 5.86 | 1.82 | 3.57 | 2.88 | 9.29 | 1.94 | 3.84 | 1.86 | 3.69 | 2.38 | 5
2 | CN(C)CC(=O)N1CCc2c([nH]c3ccccc23)C1c1cccnc1 (stereo not drawn) |  | > 100 | 99.7 | > 100 |  | > 100 | > 100 | > 100 |  | > 100 |  | > 100 | > 100 | > 100 |  | > 100 |  | > 100 |  | > 100
3 | COc1ccc(C2=NOC3=c4ccccc4=CSC3=C2c2ccccc2)cc1 |  | > 100 | 48.7 | > 100 | 51.2 | > 100 | 42.9 | > 100 | 21.5 | 89 | > 100 | > 100 | 41.7 | > 100 | 13.3 | 37.5 | 28.9 | > 100 | 54 | > 100
4 | O=C(/C=C/c1ccccn1)c1ccccc1 | 14.9 | 28.3 | 4.04 | 14.6 | 2.53 | > 100 | 7.85 | 24.9 | 4.44 | 18.1 | 1.65 | 3.1 | 3.01 | 12.1 | 4.37 | 18.3 | 2.02 | 4.1 | 12.8 | 25.6
5 | COc1ccc(N=C2C(=O)Nc3ccc(Br)cc32)cc1 |  | > 100 |  | 34.6 |  | 33.2 |  | 27.4 |  | 78.4 |  | 24.9 |  | 87.9 |  | 35.8 |  | 63.8 |  | 56.9
6 | COc1cc(-c2ccc[nH]2)[nH]c1/C=C1\N=C(C)C(C(=O)NC(C)C)=C1C | 8.91 | 21.6 | 3.25 | 14.1 | 3.53 | 15.2 | 4.51 | 19.5 | 2.44 | 12.7 | 2.15 | 6.65 | 4.24 | 16.5 | 5.47 | 20.2 | 3.08 | 14.7 | 3.1 | 9.71
7 | CC(C)(C)OC(=O)CC(S(=O)(=O)c1ccccc1)S(=O)(=O)c1ccccc1 | 13.2 | 26.4 | 1.89 | 3.32 | 3.4 | 13.5 | 13.8 | 26.7 | 19.5 | 39.4 | 1.65 | 3.53 | 17.4 | 37.8 | 17.4 | 33.1 | 1.64 | 3.17 | 1.6 | 3.02
8 | COC(=O)c1sc(=S)c2sc(C(=O)OC)c(C(=O)OC)c2c1C(=O)OC | 22.2 | 52.1 | 69.8 | > 100 | 36.2 | > 100 | 51.3 | > 100 | 44.3 | > 100 | 31 | 91.5 | 35.4 | > 100 | 36.7 | > 100 | 74.8 | > 100 | 18.1 | 89.8
9 | O=[N+]([O-])/C(=C/C=C/c1ccccc1)c1ccccc1 | 3.78 | 9.66 | 1.83 | 3.35 | 1.7 | 5 | 2.12 | 4.92 | 3.3 | 11.3 | 1.62 | 4.08 | 3.56 | 11.9 | 1.86 | 3.61 | 1.79 | 3.67 | 2.04 | 4.46
10 | c1ccc2[nH]c(-c3cscn3)nc2c1 |  | > 100 |  | > 100 |  | > 100 |  | > 100 |  | > 100 |  | > 100 |  | > 100 |  | > 100 |  | > 100 |  | > 100
11 | CN1CCC(C(=O)Nc2n[nH]c3nnc(-c4ccccc4)cc23)CC1 | 5.67 | > 21.5 | > 25 | > 25 | > 25 | > 25 | > 25 | > 25 | > 25 | > 25 | > 25 | > 25 | > 25 | > 25 | 11.7 | > 25 | > 25 | > 25 | > 25 | > 25
12 | Cc1nc2sc(C(=O)Nc3cccc(Cl)c3)c(N)c2cc1C(O)c1ccccc1 (stereo not drawn) | 0.181 | 0.815 | 3.31 | > 100 | 0.488 | > 100 | 0.203 | 0.465 | 0.379 | 1.85 | 1.15 | 18.3 | 0.929 | 13.1 | 0.546 | 7.25 | 0.351 | 19.7 | 3.77 | 33.6
13 | CCCC/C=C1/CCC(CN(C)C)C1=O (stereo not drawn) |  | 15.9 |  | 3.04 |  | 3.79 |  | 23.1 | 9.87 | 26.8 |  | 1.39 |  | 15 |  | 6.05 |  | 2.88 |  | 2.51
14 | O=c1ccc(=O)c2c1c1[nH]c3ccccc3c1c1c(=O)c3ccccc3c(=O)c21 |  | > 10 |  | > 10 |  | > 10 |  | > 10 |  | > 10 |  | > 10 |  | > 10 |  | > 10 |  | > 10 |  | > 10
15 | COc1ccc([C@H]2c3[nH]c4ccccc4c3C[C@H]3C(=O)N(CCCCCCC(=O)NO)CC(=O)N23)cc1 | 2.91 | 9.55 | 2.04 | 15 | 0.895 | > 33.3 | 3.32 | 15.1 | 2.76 | > 33.3 | 1.4 | > 33.3 | 4.26 | > 33.3 | 2.38 | > 33.3 | 1.03 | > 33.3 | 2.86 | 32.7
